The conditions of series [1]: cited from earlier work.
A further series deals with Malassezia. The series can be described thus: Self-treatment of seborrheic dermatitis with climbazole topical products. The class given is in vivo, human. As to conditions: rinse-off shampoo/shower gel and leave-on lotion with 0.07% climbazole as active ingredient, MCT oil base. The source says:
A brief history underscores the relevance of the test results. […] Dermatitis caused a severe impairment in the quality of life. Therefore, beginning three years ago, the inventor studied dermal inflammations, to conduct an accurate differential diagnosis and treat their skin condition. […] Hegor's product however contains sodium lauryl sulfate, which irritates the skin and so this shampoo cannot be used as a leave-on lotion. Moreover, all commercial lotions are formulated with oils with carbon-chain lengths longer than 10 such that Malassezia metabolizes all commercial lotions, which greatly exacerbated the inventor's seborrheic dermatitis. (See, non-patent reference number 30, by Wilde.) Dissatisfied with commercial products that made seborrheic skin conditions worse, sixteen months ago the inventor compounded topical compositions, a rinse-off shampoo/shower gel and a leave-on lotion, where the active ingredient was 0.07% climbazole and the base-oil was exclusively MCT oil (caprylic/capric oil), comprised only of carbon chain lengths of C8 and C10. While using this compounded topical treatment, all symptoms of seborrheic dermatitis induced by Malassezia were eliminated approximately one year ago. […]

A further series deals with Demodex. Description: Human in vivo testing of topical compositions (inventor's self-test, once daily at night) on signs and symptoms of demodicosis. The source says: Demodectic mites rapidly desiccate and die when removed from the body and cannot reproduce in vitro, and skin conditions triggered by demodex are part of a complex innate immune response not yet fully explained by medical research. […] Treatment is preferentially once-daily, at night, with topical applications, of a rinse-off shampoo/shower gel, and of a leave-on skin lotion. Treatment of the inflammatory response to demodex with compositions comprising the invention is novel and not previously reported. Treatment of the inflammatory response to demodex includes treatment of type 1 flushing rosacea, type 2 acne rosacea, type 4 ocular rosacea, demodicosis gravis, granulomatous rosacea, and pityriasis folliculorum, and treatment of demodicosis in mammalian quadrupeds, namely, demodectic mange.
Sebaceous glands and meibomian glands clogged by mite-detritus atrophy somewhat, extending the time for complete meibomian gland and pilosebaceous unit healing to approximately 110 days.^12 The foregoing results are consistent with the suppression or eradication of demodectic mites, establishing piroctone olamine treatment as anti-demodectic, as shown by the reduction or elimination of blepharitis, meibomian gland dysfunction, and papules about the eyelids, nose, lips, and lip margins.
The rinse-off cleanser of the compositions comprising the invention, is used as a typical topical shampoo/shower gel, and can be used over the entire scalp and body, with the exception that the rinse-off cleanser is applied to a wet body and lathered without running shower-water, so that the cleanser can be massaged onto the skin and scalp for 3 to 5 minutes, paying particular attention to the face and margins of the eyelids, and then rinsed off. Neither composition is intended to be applied directly onto the cornea, as the eyes are expected to be shut when applying either composition.
The leave-on lotion described herein is used as any typical lotion, and can be used over the entire body, paying particular attention to the face and margins of the eyes, preferentially at night. […]

For series [2] the following is noted: usage thousands of time in excess of the compositions disclosed; cited from earlier work.

Consider two molecules from patent US20160287566A1, “Anti-demodectic active agents and topical compositions for the treatment of demodicosis in humans and animals” (priority 2015, published 2016).

The structures appear in SMILES notation. “Also recorded” adds a separate entry of the source.

`CC(C)(C)C(=O)C(Oc1ccc(Cl)cc1)n1ccnc1` (stereo not shown) [climbazole, 1-(4-Chlorophenoxy)-1-(imidazol-1-yl)-3,3-dimethyl-2-butanone]: the solubility in water result in series [1] is “barely soluble”. Further, in the series with Malassezia, the “symptoms of seborrheic dermatitis induced by Malassezia” value is given as “eliminated”. The “red eye and dry eye symptoms” value in the series on Demodex (under 0.07% climbazole-only compositions, after seborrheic dermatitis symptoms were eliminated) is “increased significantly”.
Take `Cc1cc(CC(C)CC(C)(C)C)n(O)c(=O)c1.NCCO` (stereo not shown) [piroctone olamine, 1-Hydroxy-4methyl-6-(2,4,4-trimethylpentyl)-2(1H) pyridinone, 2-aminoethanol salt]: the solubility in water entry in series [1] was “barely soluble”. For the same molecule, the “toxicity in topical usage” value in series [2] is reported as “non-toxic”. Besides, the “anti-demodectic treatment effect (concluded from symptom relief)” value in the series with Demodex (after compounding and testing the compositions, human test subject) is listed as “effective anti-demodectic treatment”. For the same molecule, the “symptoms and signs of blepharitis, meibomian gland dysfunction, and papules about the eyelid margins and lip margins” value in the series on Demodex (topical compositions with 0.14% piroctone olamine as oil in water emulsion, rinse-off shampoo/shower gel and leave-on lotion once daily at night) was “reduced and eliminated; also recorded: rapid and dramatic reduction”.
